Measurements: ChEMBL document CHEMBL1201862, “PubChem BioAssay data set” (2004)
Calls of active or inactive are those of the source.

How the values were obtained:
[1] = target: Cytochrome P450 3A4 (Homo sapiens, UniProt P08684);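 note: CYP3A4 tested as one member of a cytochrome P450 panel screen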
[2] = test system: BJ; assay: BJ-TERT fibroblast viability loss – cell-based, RAS-independent, luminescence, dose response (AID 1933); format: functional; settings: Homo sapiens
[3] = test system: BJ; assay: cells; format: functional, cell-based; settings: Homo sapiens
[4] = test system: BJ; assay: BJ-TERT-LT-ST fibroblast viability loss – cell-based, RAS-independent, luminescence, dose response (AID 1935); format: functional; settings: Homo sapiens;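 note: BJ fibroblasts immortalized with TERT plus LT and ST oncogenes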
[5] = HEK-293T viability loss after treatment – luminescence, T-cell screen hits, cytotoxicity control for TCR NF-kB inhibitor project, dose response (AID 489026); format: functional, cell-based;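 note: cells exposed to compound about 14 hours before the viability readout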
[6] = DRD fibroblast viability loss – cell-based, non-viral oncogenic, luminescence, dose response (AID 1934); format: functional; settings: Homo sapiens
[7] = target: T1, Carboxy-terminal domain RNA polymerase II polypeptide A small phosphatase 1 (Homo sapiens, UniProt Q9GZU7); assay: CTDSP1 inhibitors, concentration-response, biochemical, absorbance readout, ultra-high-throughput screen actives (AID 540297); format: functional
T1 sequence (Q9GZU7 whole entry): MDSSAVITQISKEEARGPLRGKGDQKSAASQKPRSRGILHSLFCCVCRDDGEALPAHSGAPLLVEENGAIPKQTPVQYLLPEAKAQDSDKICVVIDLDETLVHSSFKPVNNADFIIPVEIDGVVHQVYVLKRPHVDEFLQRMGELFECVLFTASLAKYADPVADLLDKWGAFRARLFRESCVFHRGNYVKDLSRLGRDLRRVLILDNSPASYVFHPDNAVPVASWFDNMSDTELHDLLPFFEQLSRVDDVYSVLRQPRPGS

[8] = non-specific 3'UTR reporter inhibition in Clone20-Shn3RL – cell-based, Renilla luciferase, cherry-picked, counter-screen for Shn3 inhibitor project, dose response (AID 624133); format: functional
[9] = reduction of Shn3 3'UTR-driven luciferase in osteoblasts – cell-based, Clone20 osteoblasts, firefly luciferase, cherry-picked, dose response (AID 624132); format: functional;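 note: firefly luciferase luminescence from reporter carrying the Shn3 3'UTR in osteoblasts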
[10] = test system: Streptococcus sp. 'group A'; assay: Streptococcus pyogenes SK(-)GAS viability under kanamycin – luminescence, BacTiterGlo, confirmation, counter-screen for streptokinase expression inhibitor project, dose response (AID 1900); format: functional, organism-based
[11] = target: Cytochrome P450 2C9 (Homo sapiens, UniProt P11712)
Cytochrome P450 2C9, sequence (P11712 whole entry): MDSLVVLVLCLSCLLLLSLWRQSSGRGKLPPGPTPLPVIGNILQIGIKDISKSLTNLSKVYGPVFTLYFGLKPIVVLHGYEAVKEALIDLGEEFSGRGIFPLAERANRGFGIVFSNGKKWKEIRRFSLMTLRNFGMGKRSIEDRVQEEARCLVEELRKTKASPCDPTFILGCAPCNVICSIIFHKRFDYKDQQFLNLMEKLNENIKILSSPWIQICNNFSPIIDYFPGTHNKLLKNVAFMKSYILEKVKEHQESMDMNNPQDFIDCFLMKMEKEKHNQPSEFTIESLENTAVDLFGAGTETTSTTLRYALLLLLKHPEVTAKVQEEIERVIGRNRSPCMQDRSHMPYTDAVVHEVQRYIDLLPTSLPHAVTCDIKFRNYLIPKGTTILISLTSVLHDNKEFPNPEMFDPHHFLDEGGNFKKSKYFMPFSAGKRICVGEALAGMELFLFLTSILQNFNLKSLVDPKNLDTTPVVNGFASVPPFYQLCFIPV

[12] = target: Beta-galactosidase (Escherichia coli, UniProt Q8VNN2); assay: PubChem AID 485352; format: functional
Beta-galactosidase, sequence (Q8VNN2 whole entry): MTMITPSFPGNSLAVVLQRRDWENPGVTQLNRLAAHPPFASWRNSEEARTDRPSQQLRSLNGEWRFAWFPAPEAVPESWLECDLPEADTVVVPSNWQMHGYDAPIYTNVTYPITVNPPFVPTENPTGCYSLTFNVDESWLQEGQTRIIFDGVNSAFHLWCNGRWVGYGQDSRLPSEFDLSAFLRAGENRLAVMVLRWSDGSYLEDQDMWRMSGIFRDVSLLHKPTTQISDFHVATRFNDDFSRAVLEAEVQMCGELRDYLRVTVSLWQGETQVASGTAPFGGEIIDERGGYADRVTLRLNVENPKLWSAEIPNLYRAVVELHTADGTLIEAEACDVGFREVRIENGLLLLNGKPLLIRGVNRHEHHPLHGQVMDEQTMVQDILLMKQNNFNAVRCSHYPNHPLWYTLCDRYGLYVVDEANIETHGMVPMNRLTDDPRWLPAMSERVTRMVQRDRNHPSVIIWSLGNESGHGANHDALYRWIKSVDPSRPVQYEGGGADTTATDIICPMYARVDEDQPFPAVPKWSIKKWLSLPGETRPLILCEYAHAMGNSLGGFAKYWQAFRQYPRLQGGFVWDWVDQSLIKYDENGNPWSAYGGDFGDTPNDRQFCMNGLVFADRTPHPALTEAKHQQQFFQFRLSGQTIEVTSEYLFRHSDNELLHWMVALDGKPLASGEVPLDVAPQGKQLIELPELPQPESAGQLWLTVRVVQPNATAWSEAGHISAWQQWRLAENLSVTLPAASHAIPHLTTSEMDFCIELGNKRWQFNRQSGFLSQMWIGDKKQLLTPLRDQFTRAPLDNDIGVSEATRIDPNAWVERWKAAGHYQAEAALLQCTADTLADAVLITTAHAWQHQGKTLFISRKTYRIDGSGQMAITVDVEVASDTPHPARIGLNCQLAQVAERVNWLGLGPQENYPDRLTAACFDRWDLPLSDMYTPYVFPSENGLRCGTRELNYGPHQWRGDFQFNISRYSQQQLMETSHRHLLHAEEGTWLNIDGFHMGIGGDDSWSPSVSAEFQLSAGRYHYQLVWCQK

[13] = alpha-synuclein stem-loop luciferase translation blockers – H4 neuroglioma cells, luminescence, confirmation (AID 1988); format: functional, cell-based
[14] = luciferase reporter signal suppression in cells – H4 neuroglioma cells, luminescence, dose response (AID 1990); format: functional, cell-based
[15] = Trypanosoma cruzi growth suppression in host cells – NIH3T3 host cells, beta-gal luminescence, confirmation (AID 2044); format: functional, cell-based;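 note: intracellular parasites grown in NIH/3T3 mouse fibroblasts as host cells; luminescent beta-galactosidase reporter signal from transgenic T. cruzi replicating inside host cells; inhibitors lower the luminescence signal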
[16] = NIH-3T3 fibroblast cytotoxicity, dose response, cytotoxicity control, cell-based, fluorescence, Alamar Blue, secondary assay (AID 2327); format: functional;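 note: NIH-3T3 mouse fibroblasts cultured with fluconazole at 8 µg/mL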
[17] = target: T2, Type-1 angiotensin II receptor (Homo sapiens, UniProt P30556); assay: antagonism of angiotensin II type 1 receptor – cell-based, uHTS hits, selectivity assay for APJ receptor antagonist project, dose response (AID 463214); format: functional;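 note: antagonist potency against angiotensin II stimulated AT1 response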
T2 sequence (P30556 whole entry): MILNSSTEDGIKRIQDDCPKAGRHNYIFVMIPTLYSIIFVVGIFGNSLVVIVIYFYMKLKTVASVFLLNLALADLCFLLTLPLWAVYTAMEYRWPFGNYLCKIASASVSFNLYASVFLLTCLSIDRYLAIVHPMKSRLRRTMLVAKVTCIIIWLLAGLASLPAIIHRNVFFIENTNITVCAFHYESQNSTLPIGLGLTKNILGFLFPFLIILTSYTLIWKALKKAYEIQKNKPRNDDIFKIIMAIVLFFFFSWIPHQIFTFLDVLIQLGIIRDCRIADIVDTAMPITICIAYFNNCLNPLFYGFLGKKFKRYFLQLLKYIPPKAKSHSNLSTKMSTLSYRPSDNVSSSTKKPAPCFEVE

[18] = target: Cytochrome P450 2C19 (Homo sapiens, UniProt P33261); assay: Cytochrome panel assay with activity outcomes. Panel member name: p450-cyp2c19 Compounds with AC50 equal or less than 10 uM are considered active; format: functional; settings: read-out: AC50
Cytochrome P450 2C19, sequence (P33261 whole entry): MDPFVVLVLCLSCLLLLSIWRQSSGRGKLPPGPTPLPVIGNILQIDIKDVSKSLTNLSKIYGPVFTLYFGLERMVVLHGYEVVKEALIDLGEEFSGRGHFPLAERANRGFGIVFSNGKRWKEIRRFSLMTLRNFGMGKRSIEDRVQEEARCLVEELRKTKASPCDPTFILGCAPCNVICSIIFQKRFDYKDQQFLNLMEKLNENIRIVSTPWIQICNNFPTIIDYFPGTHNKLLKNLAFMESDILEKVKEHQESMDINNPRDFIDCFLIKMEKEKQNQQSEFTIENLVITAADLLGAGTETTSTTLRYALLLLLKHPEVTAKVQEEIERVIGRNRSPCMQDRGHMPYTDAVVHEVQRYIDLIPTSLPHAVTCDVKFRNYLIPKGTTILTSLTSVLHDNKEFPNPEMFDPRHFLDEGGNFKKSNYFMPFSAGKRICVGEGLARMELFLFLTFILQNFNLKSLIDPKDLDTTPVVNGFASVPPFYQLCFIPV

[19] = NIH3T3 cell viability loss – ATP luminescence, mouse fibroblasts, counter-screen, dose response (AID 2010); format: functional, cell-based;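 note: cells exposed to compound for about 90 hours before reading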
[20] = cells; format: functional, cell-based
[21] = Luminescence Cell-Based Dose Response HTS to Identify Inhibitors of 5'UTR Stem-Loop Driven Prion Protein mRNA Translation in H4 Neuroglioblastoma Cells. [Related pubchem assays: 1827 (Project Summary), 1813 (Primary HTS)]; format: functional
[22] = loss of viability in HepG2 cells – cell-based, CellTiter-Glo, cherry-picked, cytotoxicity control for Shn3 inhibitor project, dose response (AID 624134); format: functional
[23] = cells; format: functional, cell-based; remark: listed apart in the source
[24] = fluconazole-exposed Candida albicans growth modulators – fluorescence, retest, confirmation (AID 2467); format: functional, cell-based
[25] = target: T3, Cytochrome P450 1A2 (Homo sapiens, UniProt P05177);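 note: PubChem cytochrome P450 panel assay, CYP1A2 panel member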
T3 sequence (P05177 whole entry): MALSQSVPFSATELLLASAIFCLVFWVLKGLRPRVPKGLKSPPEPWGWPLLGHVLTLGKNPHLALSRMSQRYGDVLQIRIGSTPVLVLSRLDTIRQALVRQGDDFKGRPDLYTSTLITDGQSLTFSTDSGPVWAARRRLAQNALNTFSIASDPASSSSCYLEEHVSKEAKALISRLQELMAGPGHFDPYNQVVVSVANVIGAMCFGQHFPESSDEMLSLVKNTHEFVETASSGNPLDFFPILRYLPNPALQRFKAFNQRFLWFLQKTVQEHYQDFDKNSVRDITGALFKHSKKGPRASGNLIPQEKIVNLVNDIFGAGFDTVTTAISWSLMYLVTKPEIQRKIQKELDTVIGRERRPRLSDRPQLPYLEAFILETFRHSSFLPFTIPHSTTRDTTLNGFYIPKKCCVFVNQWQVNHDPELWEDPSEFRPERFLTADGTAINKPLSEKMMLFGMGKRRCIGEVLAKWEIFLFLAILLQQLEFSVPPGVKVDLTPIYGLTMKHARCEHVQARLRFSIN

[26] = test system: Vero; assay: cells; format: functional, cell-based; settings: Chlorocebus sabaeus
[27] = test system: Streptococcus; assay: GAS UMAA2166 growth inhibition – luminescence, BacTiterGlo, counter-screen for streptokinase expression inhibitor project, dose response (AID 1915); format: functional, organism-based;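 note: potency for reduction of bacterial viability or growth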
[28] = test system: Vero; assay: cells; format: functional; settings: Chlorocebus sabaeus
[29] = target: T4, High affinity choline transporter 1 (Homo sapiens, UniProt Q9GZV3); assay: human choline transporter blockers, potency – cell-based, 5-point CRC, membrane potential dye, dose response (AID 504840); format: functional
T4 sequence (Q9GZV3 whole entry): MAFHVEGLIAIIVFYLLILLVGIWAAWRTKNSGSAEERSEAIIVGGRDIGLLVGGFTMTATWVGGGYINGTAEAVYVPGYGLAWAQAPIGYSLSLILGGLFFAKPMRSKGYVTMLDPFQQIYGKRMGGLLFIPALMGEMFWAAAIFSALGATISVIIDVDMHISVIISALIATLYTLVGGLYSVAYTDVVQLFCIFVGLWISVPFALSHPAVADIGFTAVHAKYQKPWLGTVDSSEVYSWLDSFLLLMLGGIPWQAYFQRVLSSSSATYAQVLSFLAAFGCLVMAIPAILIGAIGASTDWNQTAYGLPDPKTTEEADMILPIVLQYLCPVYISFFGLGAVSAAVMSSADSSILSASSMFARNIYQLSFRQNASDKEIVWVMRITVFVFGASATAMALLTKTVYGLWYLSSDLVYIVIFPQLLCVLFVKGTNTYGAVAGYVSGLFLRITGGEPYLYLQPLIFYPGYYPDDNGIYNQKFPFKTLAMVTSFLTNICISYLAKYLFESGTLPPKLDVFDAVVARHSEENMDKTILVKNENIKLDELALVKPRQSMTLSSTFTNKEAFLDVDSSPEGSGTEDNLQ

[30] = target: T5, Methionyl-tRNA synthetase, putative (Trypanosoma brucei brucei, UniProt Q38C91); format: functional, Trypanosoma brucei brucei strain 927/4 GUTat10.1
T5 sequence (Q38C91 whole entry): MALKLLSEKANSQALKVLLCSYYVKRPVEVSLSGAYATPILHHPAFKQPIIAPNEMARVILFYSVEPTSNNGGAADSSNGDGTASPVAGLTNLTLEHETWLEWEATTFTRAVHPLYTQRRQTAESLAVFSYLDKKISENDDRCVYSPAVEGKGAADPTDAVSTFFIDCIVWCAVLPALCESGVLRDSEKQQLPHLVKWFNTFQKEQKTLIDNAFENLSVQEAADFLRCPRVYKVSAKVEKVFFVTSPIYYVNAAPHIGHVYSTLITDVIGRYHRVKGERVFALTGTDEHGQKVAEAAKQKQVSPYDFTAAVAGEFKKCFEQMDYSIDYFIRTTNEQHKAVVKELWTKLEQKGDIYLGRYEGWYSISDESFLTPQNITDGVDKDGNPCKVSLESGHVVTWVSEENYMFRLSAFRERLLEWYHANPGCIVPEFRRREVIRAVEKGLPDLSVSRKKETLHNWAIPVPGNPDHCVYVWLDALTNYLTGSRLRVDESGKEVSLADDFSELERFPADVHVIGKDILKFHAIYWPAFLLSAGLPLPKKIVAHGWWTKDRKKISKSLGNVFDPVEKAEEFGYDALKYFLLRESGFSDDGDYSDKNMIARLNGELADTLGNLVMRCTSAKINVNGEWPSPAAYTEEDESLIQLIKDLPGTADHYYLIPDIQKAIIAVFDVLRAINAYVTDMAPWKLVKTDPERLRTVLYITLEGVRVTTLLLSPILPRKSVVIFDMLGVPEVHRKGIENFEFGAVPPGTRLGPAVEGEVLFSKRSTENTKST

[31] = target: T5, Methionyl-tRNA synthetase, putative; format: functional, Trypanosoma brucei brucei strain 927/4 GUTat10.1; remark: listed apart in the source
[32] = Counterscreen for inhibitors of Trypanosoma brucei methionyl tRNA synthetase (MetRS): Luminescence-based cell-based high throughput dose response assay to identify compounds that are cytotoxic to Jurkat human T lymphocyte cells.; format: functional
[33] = target: Melanocortin receptor 4 (Homo sapiens, UniProt P32245); format: functional, cell-based;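 note: Cell-based assay with luminescence read-out, confirmatory dose-response testing for agonist activity of biased ligands at MC4R; human U2OS cells with tagged receptor and beta-arrestin; potency of agonists that increase receptor coupling to beta-arrestin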
Melanocortin receptor 4, sequence (P32245 whole entry): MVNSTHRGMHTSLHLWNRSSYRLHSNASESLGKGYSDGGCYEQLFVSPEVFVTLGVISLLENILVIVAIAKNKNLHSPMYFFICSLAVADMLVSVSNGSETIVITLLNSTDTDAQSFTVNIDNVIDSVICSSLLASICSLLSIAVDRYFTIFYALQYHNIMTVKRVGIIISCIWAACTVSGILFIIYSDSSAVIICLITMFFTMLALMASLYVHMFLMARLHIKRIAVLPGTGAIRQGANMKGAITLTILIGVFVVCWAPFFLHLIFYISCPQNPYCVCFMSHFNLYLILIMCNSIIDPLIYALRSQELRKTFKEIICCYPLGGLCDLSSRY

[34] = target: NAD-dependent protein deacylase sirtuin-5, mitochondrial (Homo sapiens, UniProt Q9NXA8); assay: sirtuin-5 deacylation blockers, concentration series – biochemical, fluorescence imaging, cherry-pick, set 5, dose response (AID 720591);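 note: desuccinylation of succinyl peptide AMC substrate read as fluorescence after trypsin release; potency of inhibitors that lower fluorescence and may act on trypsin instead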
NAD-dependent protein deacylase sirtuin-5, mitochondrial, sequence (Q9NXA8 whole entry): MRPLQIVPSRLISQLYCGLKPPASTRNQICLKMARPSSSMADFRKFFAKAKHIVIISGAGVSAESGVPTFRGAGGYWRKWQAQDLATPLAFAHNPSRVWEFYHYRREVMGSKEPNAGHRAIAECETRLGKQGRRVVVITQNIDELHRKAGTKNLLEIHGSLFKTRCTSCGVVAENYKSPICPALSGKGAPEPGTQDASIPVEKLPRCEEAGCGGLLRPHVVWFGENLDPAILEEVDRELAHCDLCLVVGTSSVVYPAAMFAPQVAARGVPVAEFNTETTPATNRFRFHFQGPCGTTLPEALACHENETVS

Cytochrome P450 3A4, sequence (P08684 whole entry): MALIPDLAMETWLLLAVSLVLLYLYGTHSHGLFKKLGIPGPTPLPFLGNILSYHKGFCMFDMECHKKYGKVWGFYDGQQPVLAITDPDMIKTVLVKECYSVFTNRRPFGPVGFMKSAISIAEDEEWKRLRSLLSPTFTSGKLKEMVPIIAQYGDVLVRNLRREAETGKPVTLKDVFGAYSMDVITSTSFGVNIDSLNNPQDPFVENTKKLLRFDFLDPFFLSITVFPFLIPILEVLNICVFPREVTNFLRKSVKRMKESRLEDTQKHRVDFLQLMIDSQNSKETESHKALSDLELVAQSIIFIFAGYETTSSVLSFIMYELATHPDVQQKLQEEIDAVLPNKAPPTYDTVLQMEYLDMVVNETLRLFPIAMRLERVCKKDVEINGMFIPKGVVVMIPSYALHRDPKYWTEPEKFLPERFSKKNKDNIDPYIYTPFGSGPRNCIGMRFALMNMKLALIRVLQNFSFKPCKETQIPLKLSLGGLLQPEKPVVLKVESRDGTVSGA

SMILES: O=C(c1csnn1)N1CCC2(CC1)CN(c1ccccn1)C2
- AC50 [1]: inconclusive

SMILES: CCOc1ccccc1C1CC(=O)Nc2cc(C)c(C)cc21 (centres undefined)
- EC50 [2]: 14 µM (active)
- EC50 [3]: 53.3 µM (active)
- EC50 [4]: 23.5 µM (active)
- IC50 [5]: > 80 µM (inactive)
- EC50 [6]: 18.1 µM (active)

SMILES: C=CCn1c(COc2ccc(F)cc2)nnc1SCC(=O)NC(=O)NCc1ccco1
- IC50 [7]: 15.9 µM (active)

SMILES: Cc1nc(-n2nc3c(c2O)CCCC3)[nH]c(=O)c1Cc1ccccc1
- AC50 [8]: 2.37 µM (active)
- AC50 [9]: 4.44 µM (active)
- EC50 [10]: 1.14 µM (active)
- AC50 [11]: 4.47 µM (inconclusive)
- AC50 [1]: inconclusive
- EC50 [12]: > 40 µM (inactive)
- EC50 [13]: 6.76 µM (active)
- EC50 [14]: 8.07 µM (active)
- EC50 [15]: 1.17 µM (active)
- EC50 [16]: > 150 µM (inconclusive)
- IC50 [17]: 14.2 µM (active)
- AC50 [18]: 25.1 µM (inconclusive)
- EC50 [19]: 1.06 µM (active)
- EC50 [20]: > 350 µM (not active)
- EC50 [21]: 14.9 µM (active)
- AC50 [22]: 57 µM (active)
- EC50 [23]: 16.8 µM (active)
- EC50 [24]: 0.554 µM (active)
- AC50 [25]: 14.1 µM (inconclusive)
- IC50 [26]: > 25 µM (active)
- EC50 [27]: 4.47 µM (active)
- CC50 [28]: 9.47 µM (active)

SMILES: COC(=O)C1=COC(OC2OC(CO)C(O)C(O)C2O)C2C1C=CC2(O)CO (centres undefined)
- IC50 [7]: 3.19 µM (active)

SMILES: O=C1C2CCCN2C(c2cccs2)N1c1ccc(Cl)cc1 (centres undefined)
- EC50 [13]: 49.9 µM (active)
- EC50 [14]: 45.2 µM (active)
- EC50 [21]: 17 µM (active)
- IC50 [26]: 17.1 µM (active)

SMILES: O=C(NNC(=O)c1ccc(NC(=O)c2ccccc2)cc1)Nc1ccccc1
- IC50 [7]: 7.38 µM (active)

SMILES: Cc1cc(C)nc(SCc2cc(=O)c(OC(=O)c3ccco3)co2)n1
- IC50 [29]: 12.3 µM (active)

SMILES: Cn1c(S)nnc1CCNC(=O)c1ccccc1Cl
- AC50 [1]: inconclusive

SMILES: Cc1ccc(-c2c[nH]c(C(O)c3cc(Cl)cc(Cl)c3)n2)cc1 (centres undefined)
- IC50 [30]: 15.3 µM (inactive)
- IC50 [31]: 6.3 µM (active)
- IC50 [32]: 74.7 µM (inactive)

SMILES: Cc1c(NS(=O)(=O)c2cc(C(=O)NCc3cccc(Cl)c3)ccc2Cl)c(=O)n(-c2ccccc2)n1C
- IC50 [30]: 94.9 µM (inactive)
- IC50 [31]: 26.8 µM (inactive)
- IC50 [32]: 83.3 µM (inactive)

SMILES: COc1ccccc1-c1cc(NC(C)=O)c2ncc(-c3cccc(C(F)(F)F)c3)n2c1
- EC50 [33]: > 89.2 µM (inactive)

SMILES: COc1ccc(-c2cc(NC(C)=O)c3ncc(-c4ccc(F)cc4)n3c2)cc1OC
- EC50 [33]: > 89.2 µM (inactive)

SMILES: Cc1ccc(S(=O)(=O)OCC(=O)Nc2ccc(C(=O)O)c(O)c2)cc1
- IC50 [7]: 4.64 µM (active)
- AC50 [34]: 4.19 µM (active)

SMILES: COC(=O)c1cc2c(cn1)[nH]c1ccccc12 [BETA-CCM]
- AC50 [1]: inconclusive

SMILES: COc1cc2nc(N3CCN(C(=O)c4ccco4)CC3)nc(N)c2cc1OC [PRAZOSIN]
- AC50 [1]: inconclusive
